Experimental data as given in patent US11230579B2, “Method of treating BCL-2 over-expressing disorders using arts containing a BH3-like domain” (CARMEL-HAIFA UNIVERSITY ECONOMIC CORPORATION LTD., priority 2012, dated 2022).
Where two headings read alike, the source gives them in different places. Residues, ends and D or L forms follow the SMILES beside them. *: point of attachment. Cbz = O=C(OCc1ccccc1)*

Legend:
HeLa cells = assay: Induction of apoptosis by ABT-263 (C-PARP, C-Casp3 Western blot); format: cell-based, human
Method: (§1) ABT-263 is a Bcl-2 antagonist targeting the BH3 domain and leading to initiation of apoptosis within two hours after treatment. The effect of ABT-263 was studied in HeLa cells and HeLa cells in which ARTS expression was knocked-down using shRNA method (HeLa KD ARTS). HeLa and HeLa KD ARTS cells were treated with different concentrations of ABT-263 at different incubation time points (0, 16 and 24 Hours). Lysates were separated using SDS-PAGE method. To evaluate apoptosis, Western Blot analysis was performed using antibodies recognizing Cleaved-PARP (C-PARP), Cleaved-casp3 (C-Casp3), Bcl-2, ARTS, XIAP and Actin (FIG. 8A).

HeLa KD ARTS cells = assay: Induction of apoptosis by ABT-263 in ARTS knocked-down cells; format: cell-based, human; details: ARTS KD HeLa cells (absence of ARTS)
Method: as §1

Bcl-2 [1] = assay: IP with anti ARTS Ab after ABT-263 treatment with or without QVD: binding of ARTS to Bcl-2; format: cell-based, human; details: in the presence of QVD
Method: Co immunoprecipitation was performed as previously described (Gottfried et al., 2004). Briefly, 10 μg of anti-ARTS antibody or 2 μg of anti-Bcl-2 or anti-XIAP antibody were added to the protein lysate and the samples were left rotating overnight at 4° C. On the following day, agarose beads conjugated to protein A/G (Santa Cruz) were added for 4 h. Samples were centrifuged at 4000 rpm, 4° C. for 5 min and washed three times with PBS. Proteins were eluted from beads following 5 min of boiling in sample buffer and separated on 12.5% SDS-PAGE gel, followed by Western blot analysis.
ABT is a known BH3 mimetics antagonist of Bcl-2 that binds the hydrophobic binding groove in Bcl-2 that includes the BH3 domain. […] Addition of QVD was done to examine whether the binding of ARTS to Bcl-2 occurs before initiation of caspase activation. An IP assay using monoclonal mouse anti ARTS Ab followed by Western Blot was performed by using Bcl-2, ARTS and Actin antibodies.

Bcl-2 [2] = details: cited from earlier work
Bcl-XL = Bcl-XL (Homo sapiens, UniProt Q07817); details: cited from earlier work
Chain of Bcl-XL (Q07817 whole entry): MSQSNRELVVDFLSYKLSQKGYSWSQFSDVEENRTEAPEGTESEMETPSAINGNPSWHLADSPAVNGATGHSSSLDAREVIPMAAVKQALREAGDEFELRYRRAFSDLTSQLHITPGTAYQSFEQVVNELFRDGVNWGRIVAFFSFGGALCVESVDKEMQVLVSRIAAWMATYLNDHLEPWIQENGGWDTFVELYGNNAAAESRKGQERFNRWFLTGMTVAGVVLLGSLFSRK

Bcl-W = biological target: T1, Bcl-W (Homo sapiens, UniProt Q92843); details: cited from earlier work
T1 sequence (Q92843 1-193): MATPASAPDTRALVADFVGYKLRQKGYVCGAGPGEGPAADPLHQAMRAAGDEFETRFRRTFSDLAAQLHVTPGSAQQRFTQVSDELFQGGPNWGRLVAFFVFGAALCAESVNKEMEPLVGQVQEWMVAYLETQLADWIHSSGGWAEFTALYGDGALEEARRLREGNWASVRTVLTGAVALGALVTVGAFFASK

[3] = tested on: small cell lung cancer xenographs, acute lymphoblastic leukemia and hematologic tumors; details: cited from earlier work
solid tumors = details: panel of pediatric tumors; cited from earlier work
[4] = tested on: acute lymphocytic leukemia; details: panel of pediatric tumors; cited from earlier work
[5] = tested on: tumor types with an over expression of Mcl-1; details: cited from earlier work
Bcl-2 [6] = assay: Over-expression of ARTS in COS-7 cells, Bcl-2 levels by Western blot and densitometry; format: cell-based; details: COS-7 cells transfected with Bcl-2 or Bcl-2 and ARTS, 16 h
From the text: For transient transfections jetPEI™ (Polyplus Transfection) and Transfectol (GeneChoice) reagents were used according to the manufacturers' instructions.
To determine whether ARTS promotes apoptosis by regulating the levels of Bcl-2, the inventors first over-expressed ARTS in COS-7 cells. More specifically, COS-7 cell were transiently transfected with ARTS, Bcl-2 or empty vector or co-transfected with both constructs.

Bcl-2 [7] = assay: Myc beads pull-down of ARTS and Bcl-2 in co-transfected COS-7 cells; format: binding; details: COS-7 cells co-transfected with Bcl-2 and ARTS
Method: COS-7 cells were co-transfected with different constructs as detailed herein. The cells were lysed in RIPA buffer (150 mM NaCl, 50 mM Tris-HCl (pH 8), 1% NP-40, 0.5% deoxycholate acid containing protease inhibitors (mini Complete, Roche)). The samples were left rotating overnight at 4° C. with the anti-Myc-beads (Santa Cruz). Samples were centrifuged at 4000 rpm, 4° C. for 5 min and washed four times in PBS. Proteins were eluted from beads following 5 min of boiling in sample buffer. Proteins were separate on 12.5% SDS-PAGE gel, followed by Western blot analysis.
The mechanism by which ARTS regulates Bcl-2 levels was further tested using a pull-down assay in COS-7 cells which were co-transfected with Bcl-2 and ARTS expression vectors. Pull-down assays were performed using agarose anti-myc beads followed by Western blot analysis using mouse anti-ARTS and anti-Bcl-2 antibodies.

Bcl-2 [8] = details: different cell lines and mouse embryonic fibroblasts (MEFs), Western blot
Bcl-2 [9] = assay: Proteasome inhibition in transfected COS-7 cells, Bcl-2 levels; format: cell-based; details: COS-7 cells transfected with Bcl-2 or Bcl-2 and ARTS, 6 h
Method: For the proteasome inhibition studies the cells were incubated with MG132 (20 μM) for 6 hours.
COS-7 cells transiently transfected with Bcl-2 or co-transfected with Bcl-2 and ARTS constructs were incubated with a potent proteasome inhibitor MG132 for 6 h to evaluate the effect of the ubiquitin-proteasome system (UPS) on Bcl-2 degradation.

Bcl-2 [10] = assay: Functional-structural pull-down assay with anti Bcl2 antibody in transfected HeLa cells; format: binding, human; details: pull-down with Bcl-2 antibodies
Method: HeLa cells were transiently transfected with Full length ARTS plasmid and 128 amino acids N′ terminus deletion of ARTS plasmid, for 24 hrs. The cells were extracted using RIPA-SDS lysis buffer. Immunoprecipitation was done by incubation of lysates overnight with anti Bcl2 antibody (BD), followed by precipitation done with protein A/G beads (Santa Cruz). Western blot analysis was performed using monoclonal anti ARTS antibody directed against its unique C terminus (Sigma).
In order to identify the Bcl-2 binding domain in ARTS, the inventors examined whether deletion of different fragments of ARTS, namely, the N-terminal 128 amino-acid residues may have an effect. Therefore, pull-down experiments were performed in HeLa cells transfected with either the full length ARTS or a deletion mutant thereof.

In the case of `CC1(C)CCC(c2ccc(Cl)cc2)=C(CN2CCN(c3ccc(C(=O)NS(=O)(=O)c4ccc(N[C@H](CCN5CCOCC5)CSc5ccccc5)c(S(=O)(=O)C(F)(F)F)c4)cc3)CC2)C1` [ABT-263, 4-[4-[[2-(4-Chlorophenyl)-5,5-dimethyl-1-cyclohexen-1-yl]methyl]-1-piperazinyl]-N-[[4-[[(1R)-3-(4-morpholinyl)-1-[(phenylthio)methyl]propyl]amino]-3-[(trifluoromethyl)sulfonyl]phenyl]sulfonyl]benzamide], the “apoptosis (level of C-PARP and C-Casp3) with increased concentrations” value (HeLa cells) is reported as “increased apoptosis”, the apoptosis (HeLa cells; 25 μM for 24H) is reported as “induction of apoptosis” and the “concentration giving optimal induction of apoptosis” value (HeLa cells; 24 h) is reported as 25 µM. For the same molecule, the “apoptosis (C-PARP and C-Casp3 levels)” value (HeLa KD ARTS cells) was “not able to induce apoptosis”, the “apoptosis (C-PARP and C-Casp3 levels)” value (HeLa KD ARTS cells; listed as ABT) was “lower apoptosis rates” and the “binding of ARTS to Bcl-2 after treatment” value (Bcl-2 [1]; 25 μM, 3 and 24 hours) was “significant increase in binding of ARTS to Bcl-2”. For the same molecule, the “inhibition of the binding of ARTS to Bcl-2” value (Bcl-2 [1]) was “fails to inhibit”, the “binding to Bcl-2” value (Bcl-2 [2]) was “high affinity” and the “binding to Bcl-XL” value (Bcl-XL) was “high affinity”. For the same molecule, the “binding to Bcl-W” value (Bcl-W) was “high affinity”, the efficacy against tumors [3] was “effective” and the “efficacy as a single agent against solid tumors” value (solid tumors) was “not effective”. The “efficacy against acute lymphocytic leukemia” value [4] was “highly significant”.

In the case of `CN(C)CC[C@H](CSc1ccccc1)Nc1ccc(S(=O)(=O)NC(=O)c2ccc(N3CCN(Cc4ccccc4-c4ccc(Cl)cc4)CC3)cc2)cc1[N+](=O)[O-]` [ABT-737, (R)-4-(4-((4′-chloro-[1,1′-biphenyl]-2-yl)methyl)piperazin-1-yl)-N-((4-((4-(dimethylamino)-1-(phenylthio)butan-2-yl)amino)-3-nitrophenyl)sulfonyl)benzamide], the “binding to Bcl-2” value (Bcl-2 [2]) is listed as “high affinity”, the “binding to Bcl-XL” value (Bcl-XL) is listed as “high affinity” and the “binding to Bcl-W” value (Bcl-W) is listed as “high affinity”. For the same molecule, the “effect in tumor types with an over expression of Mcl-1” value [5] was “no effect”.

For `COc1cc([C@@H]2c3cc4c(cc3[C@@H](O[C@@H]3O[C@@H]5CO[C@@H](C)O[C@H]5[C@H](O)[C@H]3O)[C@H]3COC(=O)[C@H]23)OCO4)cc(OC)c1O` [Etoposide], the “Bcl-2 level on treatment” value (Bcl-2 [6]) was “further reduction of Bcl-2 level”, the “fate of ARTS/Bcl-2 complex upon induction of apoptosis” value (Bcl-2 [7]) was “degraded” and the “Bcl-2 levels upon induction of apoptosis” value (Bcl-2 [8]) was “down regulated”.

With `CC(C)C[C@@H](C=O)NC(=O)[C@H](CC(C)C)NC(=O)[C@H](CC(C)C)NC(=O)OCc1ccccc1` [MG132] (Cbz-Leu-Leu-Leu-aldehyde) the “Bcl-2 levels during proteasome inactivation” value (Bcl-2 [9]) was “accumulation of Bcl-2 levels”.

B1: 128aa N′del ARTS: deletion mutant of ARTS lacking the N′ terminal 128 amino acid residues (protein)
chain: MVAGESGLGKSTLVNSLFLTDLYRDRKLLGAEERIMQTVEITKHAVDIEEKGVRLRLTIVDTPGFGDAVNNTECWKPVAEYIDQQFEQYFRDESGLNRKNIQDNRVHCCLYFISPFGHGYGPSLRLLAPPGAVKGTGQEHQGQGCH
For B1, the “binding to Bcl-2” value (Bcl-2 [10]) was “does not bind to Bcl-2”.
